In the NIST ThermoML archive (doi:10.1016/j.jct.2013.10.007):
Numbers after ± are expanded uncertainties.

Legend:
[1] = Crystal; DTA
[2] = Molar enthalpy of transition or fusion; settings: Crystal; DSC

Normal melting temperature [1]: 72.89 ± 0.53 °C | Molar enthalpy of transition or fusion [2]: 27.7 ± 8.6 kcal/mol
SMILES: CCCCCCCCCCCCCCCCCC(=O)OCC(COC(=O)CCCCCCCCCCCCCCCCC)OC(=O)CCCCCCCCCCCCCCCCC [glycerol trioctadecanoate]
